Assay results: article PMC8416018, “Characterization of the ABC methionine transporter from Neisseria meningitidis reveals that lipidated MetQ is required for interaction” (eLife, 2021)

Legend:
NLM-NmMetQ [1] = target: T1, NLM-NmMetQ (Neisseria meningitidis, UniProt Q7DD63); test: […] NMR FAXS competition; format: binding; settings: 43 uM protein, 43 uM analog, 2 mM trifluoromethyl methionine reporter, T2 120 ms, 300 K; competitive
T1 construct: gene NMB1946; made as in Nguyen et al. 2019; E. coli BL21(DE3) Gold
T1 sequence (Q7DD63 22-287): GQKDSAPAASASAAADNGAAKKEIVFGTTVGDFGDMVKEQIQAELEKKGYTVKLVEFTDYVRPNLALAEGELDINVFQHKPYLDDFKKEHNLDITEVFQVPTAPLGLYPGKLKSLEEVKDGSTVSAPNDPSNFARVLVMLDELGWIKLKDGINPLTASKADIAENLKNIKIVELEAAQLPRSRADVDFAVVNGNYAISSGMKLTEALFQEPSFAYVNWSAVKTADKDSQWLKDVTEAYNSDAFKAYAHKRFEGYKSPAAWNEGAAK

[2] = target: T2, lipo-NmMetQ:NmMetNI (methionine site) (Neisseria meningitidis, UniProt Q7DD63); test: EnzChek phosphate ATPase stimulation; format: biochemical; settings: 2 mM ATP, NmMetNI:lipo-NmMetQ:analog 1:8:50 molar ratio, 5 mM MgCl2, pH 7.5, 37 C, 0.05% DDM
T2 construct: gene NMB1946; full-length MetQ, signal cleaved, triacylated at Cys20, C-terminal His10; MetNI with His10 on MetN; DDM-solubilized; E. coli; Methionine ABC transporter permease protein MetI
T2 sequence (Q7DD63 20-287): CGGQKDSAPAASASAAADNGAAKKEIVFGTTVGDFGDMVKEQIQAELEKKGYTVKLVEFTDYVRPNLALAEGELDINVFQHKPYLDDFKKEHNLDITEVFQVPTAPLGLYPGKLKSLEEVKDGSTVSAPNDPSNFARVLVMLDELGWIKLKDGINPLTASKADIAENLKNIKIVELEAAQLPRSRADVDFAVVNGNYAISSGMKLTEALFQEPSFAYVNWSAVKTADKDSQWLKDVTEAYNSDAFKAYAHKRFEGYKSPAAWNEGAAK
T2 sequence (Q9JXP2 1-245 partner): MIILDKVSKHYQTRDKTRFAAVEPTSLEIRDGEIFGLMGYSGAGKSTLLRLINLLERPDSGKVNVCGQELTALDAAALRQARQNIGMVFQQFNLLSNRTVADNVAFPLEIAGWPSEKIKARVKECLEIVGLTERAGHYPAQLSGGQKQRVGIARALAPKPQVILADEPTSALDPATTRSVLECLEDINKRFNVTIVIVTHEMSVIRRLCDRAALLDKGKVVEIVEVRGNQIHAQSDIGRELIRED
T2 sequence (Q9JXP3 1-228 partner): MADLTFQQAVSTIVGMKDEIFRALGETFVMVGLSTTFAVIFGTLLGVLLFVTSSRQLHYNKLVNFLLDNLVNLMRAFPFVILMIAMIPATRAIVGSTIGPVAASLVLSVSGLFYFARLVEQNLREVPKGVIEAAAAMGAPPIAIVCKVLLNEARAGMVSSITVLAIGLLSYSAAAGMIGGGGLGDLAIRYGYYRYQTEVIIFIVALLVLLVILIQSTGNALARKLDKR

NLM-NmMetQ [3] = target: T1, NLM-NmMetQ; test: […] NMR CPMG relaxation, direct reporter binding; settings: 43 uM protein, 2 mM reporter, T2 120 ms, 300 K

Structure (SMILES)	-ln(CPMG/1D) (NLM-NmMetQ [1])	EnzChek phosphate ATPase stimulation [2]	-ln(CPMG/1D) (NLM-NmMetQ [3])
CSCC[C@@H](N)C(=O)O [D-methionine]	D-methionine displaced less reporter than L-methionine	–	–
CCSCC[C@H](N)C(=O)O [L-ethionine]	addition of a methylene group (L-ethionine) was better tolerated	–	–
CCOC(=O)[C@@H](N)CCSC [L-methionine ethyl ester]	L-methionine ethyl ester only partially displaced the reporter molecule	–	–
CS(=N)(=O)CC[C@H](N)C(=O)O (stereo partly drawn) [L-methionine sulfoximine]	seleno-L-methionine, L-methionine sulfoximine, and L-norleucine were well tolerated	–	–
CSCC[C@H](N)C(=O)O [L-methionine]	L-methionine completely displaced the reporter molecule	–	–
CCCC[C@H](N)C(=O)O [L-norleucine]	seleno-L-methionine, L-methionine sulfoximine, and L-norleucine were well tolerated	–	–
CSCC[C@H](NC(C)=O)C(=O)O [N-acetyl-L-methionine]	Addition of these analogs led to the respective complete or near complete displacement	–	–
CSCC[C@H](NC=O)C(=O)O [N-formyl-L-methionine]	Addition of these analogs led to the respective complete or near complete displacement	methionine analogs led to substrate-stimulated ATPase activity: N-acetyl-L-methionine, N-formyl-L-methionine	–
N[C@@H](CCSC(F)(F)F)C(=O)O [Trifluoromethyl-methionine]	–	–	reporter molecule plus NLM-NmMetQ has a high -ln(CPMG/1D) ratio
C[Se]CC[C@H](N)C(=O)O [seleno-L-methionine]	seleno-L-methionine, L-methionine sulfoximine, and L-norleucine were well tolerated	–	–
